According to publication PMC4745082, “A Novel PET Imaging Probe for the Detection and Monitoring of Translocator Protein 18 kDa Expression in Pathological Disorders” (Scientific Reports, 2016):

Columns and labels:
CBR = assay: In vitro CBR binding, displacement of [3H]flunitrazepam; set-up: species or system rat; conditions: for Ki: displacement of [3H]flunitrazepam from rat cerebrocortical samples, mean of three experiments in duplicate
Experimental: Binding affinity and selectivity to the 18-kDa translocator protein TSPO and to CBR were assessed using in vitro receptor binding assays. These experiments were carried out as described by Denora et al[34].

TSPO [1] = biological target: T1, TSPO (Rattus norvegicus, UniProt P16257); conditions: ratio of Ki values, higher affinity of CB251
TSPO [2] = biological target: T1, TSPO; assay: biochemical
TSPO [3] = biological target: TSPO; set-up: method as in PMID 19948230; conditions: literature value ref 25; cited from earlier work

T1 sequence (P16257 whole entry): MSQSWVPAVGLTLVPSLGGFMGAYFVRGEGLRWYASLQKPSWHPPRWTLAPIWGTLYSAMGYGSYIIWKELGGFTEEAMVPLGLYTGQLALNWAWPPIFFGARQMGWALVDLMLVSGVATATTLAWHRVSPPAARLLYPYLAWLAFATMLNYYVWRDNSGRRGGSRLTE

CCCN(CCC)C(=O)Cc1c(-c2ccc(OCCF)cc2)nc2c(Cl)cc(Cl)cn12 [CB251, 2-(2-(4-(2-Fluoroethoxy)phenyl)-6,8-dichloroimidazo[1,2-a]pyridin-3-yl)-N,N-dipropylacetamide]
Ki (CBR): > 100000 nM | binding to CBR (CBR; result in words): below the detection limit | TSPO binding affinity relative to PK 11195 (TSPO [1]): 5 times | TSPO binding affinity relative to PBR28 (TSPO [1]; PBR28 Ki from ref 25): 22 times | Ki (TSPO [2]): 0.27 ± 0.09 nM

COc1ccccc1CN(C(C)=O)c1cnccc1Oc1ccccc1 [PBR28]
Ki (TSPO [3]): 6.1 ± 6.4 nM

CCC(C)N(C)C(=O)c1cc2ccccc2c(-c2ccccc2Cl)n1 (centres unmarked) [PK 11195, reference compound]
Ki (CBR): > 100000 nM

CN1C(=O)CN=C(c2ccccc2F)c2cc([N+](=O)[O-])ccc21 [flunitrazepam, reference compound]
Ki (CBR): 5.11 ± 0.87 nM
